The test deals with eczema, seborrheic dermatitis and allergic skin reactions. Put plainly: Applicant's general experiments: compounds applied to the affected skin area alone or before a topical corticosteroid. The settings on record: for effectiveness in alleviating the symptoms: applied alone, with no steroid; for enhancement of effectiveness of the topical corticosteroid: applied to affected area prior to the topical corticosteroid, compared with topical corticosteroid alone; for effectiveness compared with hydrocortisone 2.5% alone: decongestant alone applied before hydrocortisone 0.5%. The format is in vivo, adult patient. On the procedure: The experiments were conducted in order to try to treat these conditions as well as to try to enhance the performance of hydrocortisone and other topical corticosteroids in the treatment of these conditions.
With respect to the use of compounds to try to enhance the effectiveness of topical corticosteroids, the experiments involved first applying to the affected area particular compounds and then shortly thereafter applying to the same affected area a topical corticosteroid. For example, compounds that were tried include eye drop solutions, nasal decongestant sprays and other kinds of compounds available over the counter or by prescription. Antihistamine and decongestant combinations were tried as a solution to be applied to the affected area prior to the application of the steroid. In addition, antihistamines alone (preceding the corticosteroid) and decongestants alone (preceding the corticosteroid) were tried. As stated above, antihistamines alone (without the corticosteroid) and decongestants alone (without the corticosteroid) were also tried.
An increase in effectiveness is defined as greater alleviation of the dermatological symptoms of the condition or speedier alleviation of the dermatological symptoms of the condition or both.
That is, the identical experiment was conducted for the same condition but without preceding (or following) the application of the corticosteroid cream with an application of any solution in according with the method of the present invention.

The values below come from patent US20110201582A1, “METHOD AND COMPOSITION FOR TREATMENT OF SKIN CONDITIONS” (priority 2004, published 2011).

Entries after “also recorded” stand apart in the source; their conditions may differ. Where a name gives a salt, the structure may show the parent alone.

As to `CNC[C@H](O)c1cccc(O)c1` [phenylephrine HCL], the “enhancement of effectiveness of the topical corticosteroid” value was “only mild enhancement of effectiveness” and the “effectiveness compared with hydrocortisone 2.5% alone” value is recorded as “performs better”. Further, where the note is “HCL”, the “effectiveness in alleviating the symptoms” value was “works somewhat to alleviate dermatological symptoms, albeit not fantastically; also recorded: mildly effective alleviation”.
For the compound `c1ccc2c(CC3=NCCN3)cccc2c1` [naphazoline HCL], the “effectiveness compared with hydrocortisone 2.5% alone” value is listed as “performs better”. Besides, under “HCL”, the “effectiveness in alleviating the symptoms” value was “works somewhat to alleviate dermatological symptoms, albeit not fantastically; also recorded: mildly effective alleviation” and the “enhancement of effectiveness of the topical corticosteroid” value is “slightly greater than that of a topical corticosteroid alone; also recorded: only mild enhancement of effectiveness”.
